The record followed here is US5759556A, “Skin care compositions containing certain cyclic aliphatic unsaturated compounds and retinol or retinyl ester” (Chesebrough-Pond's USA Co., Division of Conopco, Inc., priority 1996, dated 1998).

One assay has as its target T1, LRAT (Bos taurus, UniProt Q9BGL2).
T1 construct: microsomal fraction isolated from bovine retinal pigment epithelial cells; from tissue; host or cells: bovine retinal pigment epithelial cells, microsomal fraction
T1 sequence (Q9BGL2 1-230): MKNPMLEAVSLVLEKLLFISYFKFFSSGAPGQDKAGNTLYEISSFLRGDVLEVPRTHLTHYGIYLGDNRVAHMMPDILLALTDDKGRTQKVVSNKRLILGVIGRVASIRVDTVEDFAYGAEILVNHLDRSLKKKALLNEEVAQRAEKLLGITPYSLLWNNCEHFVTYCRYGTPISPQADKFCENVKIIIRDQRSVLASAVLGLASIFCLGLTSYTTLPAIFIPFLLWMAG
Put plainly: In vitro microsomal esterification of retinol, LRAT catalyzed (retinyl laurate formation). In kind it is biochemical, bovine. As to conditions: for inhibition at 10 µM: Table B.

The test system of assay [1] is keratinocytes. Put plainly: 3H-Thymidine incorporation and keratinocyte proliferation (Example 1A). The assay is classed as cell-based, Human. As to conditions: for mean Thymidine incorp./μg protein ± s.d: 24 hours, n = 3. The method, then: (§1) Human keratinocytes, isolated from neonatal foreskin by trypsin treatment were grown in Dulbecco Modification Eagle (DME) Hams F12 (1:1) medium/10% fetal calf serum in the presence of irradiated 3T3 mouse fibroblasts for establishing dividing keratinocyte colonies. Cells were grown under the above condition until their second passage and kept frozen for future use. Frozen second passage keratinocytes were thawed and plated into the above medium and grown for five days before they were switched to a serum-free MCDB 153-based medium keratinocyte growth medium (KGM) from Clonetics Corporation, San Diego, Calif., containing 0.15 mM Ca, or keratinocyte serum-free media (KSFM) from GIBCO containing 0.09 mM Ca). On day 7, when the cells were 80-90% confluent, they were trypsinized and plated in the serum-free medium for the various experiments.
The incorporation of ^3 H-thymidine by cultured keratinocytes was used as an assay of keratinocyte proliferation. Thymidine is one of four deoxynucleosides which are the monomeric units of DNA, the universal library of genetic information in the animal kingdom. Prior to cell division of a somatic cell such as a keratinocyte, the complete genome of the cell undergoing cell division is replicated. This involves large scale DNA synthesis by the cell and enables both daughter cells to receive identical copies of the genetic material. When ^3 H-thymidine is included in the culture media of keratinocytes which are synthesizing DNA in preparation for cell division then the labelled nucleoside is incorporated into the newly synthesized DNA. The extent of incorporation of ^3 H-thymidine into a population of cells is proportional to the rate of DNA synthesis by this population of cells and therefore an indication of their cellular proliferation.
Keratinocytes (that were cultured as described above) were plated in 24 well plates at a density of about 20,000 cells per well in 1 ml media. After incubation for four days or until the cells were 60-70% confluent, the media was changed. Test compounds were added (in triplicate) to the wells 24 hours after the media change, and four hours later 1μCi ^3 H-Thymidine in 50 μl media was added per well. Cells were incubated for a further 24 hours. Media was removed from the cells, 10% ice cold trichloroacetic acid (TCA) added and plates were incubated on ice for 30 minutes. Cells were washed five times with 5% TCA and allowed to dissolve in 500 μl 0.1M NaOH for at least one hour (usually overnight). The preparations were neutralized with 0.1M HCl; 50 μl of the cell preparation was used to determine total protein content. Disintegrations per minute (DPM) from ^3 H labelling of DNA was determined by liquid scintillation counting of 900 μl of the cell preparation. Thymidine incorporation results were expressed as DPM/μg protein.
Background: Uptake of a labelled nucleoside into DNA is a usual measure of proliferation.

Assay [2] relates to keratinocytes. Nature of the assay: Transglutaminase assay, keratinocyte differentiation (Example 4), normalized to DNA. The assay is classed as cell-based, Human. As to conditions: for activity at […]: .00025 mM; for effect on transglutaminase / keratinocyte differentiation (in words): Table D, both experiments; for activity at 1000 µM: 1 mM. The method, then:
as §1
(§2) During the process of terminal differentiation in the epidermis, a 15 nm thick layer of protein, known as the cornified envelope (CE) is formed on the inner surface of the cell periphery. The CE is composed of numerous distinct proteins which have been cross-linked together by the formation of N ^ε -(γ-glutamyl) lysine isodipeptide bonds catalyzed by the action of at least two different transglutaminases (TGases) expressed in the epidermis. TGase I is expressed in abundance in the differentiated layers of the epidermis, especially the granular layer, but is absent in the undifferentiated basal epidermis. Thus TGase I is a useful marker of epidermal keratinocyte differentiation with high TGase I levels indicating a more differentiated state. An ELISA based TGase I assay, using a TGase I antibody, was used to assess the state of differentiation of the cultured keratinocytes in the examples that follow.
Keratinocytes (cultured as described above) were plated in 96 well plates at a density of 3,000 cells per well in 200 μl of cell culture media. After incubation for four days, the media was changed to media containing test compounds (six replicates per test). The cells were cultured for a further 72 hours after which time the media was aspirated and the plates stored at -70° C. After the plates were removed from the freezer, the cells were further freezed fractured by freezing and thawing and then washed 3× with PBS. The cells were incubated for one hour at room temperature (R/T) with TBS/5% BSA buffer. Cells were then incubated with 100 μl of monoclonal anti-human transglutaminase (IgG) mouse antibody (primary antibody) obtained from Biomedical Technologies Inc. diluted 1:2000 in TBS/1% BSA buffer for two hours at 37° C., and then rinsed six times with wash buffer (TBS/1% BSA/0.05% Tween-20). Cells were next incubated with 100 μl of Fab fragment, peroxidase conjugated anti-mouse IgG antibody (secondary antibody) from Amersham diluted 1:4,000 in wash buffer for two hours at 37° C. and then rinsed three times with wash buffer and three times with PBS. Cells were incubated with substrate solution (4 mg o-phenylene diamine and 3.3 μl 30% H2 O2 in 10 mL 0.1M citrate buffer, pH 5.0) for five minutes at R/T and in darkness (under aluminum foil). The reaction was stopped by the addition of 50 μl 4N H2SO4. The absorbance of samples was read at 492 nm in the plate reader. Out of the six replicates, four were treated with both antibodies, two were treated only with the secondary antibody (i.e., to determine the background binding of the enzyme conjugated antibody). Transglutaminase I levels were determined by subtracted background from the readings from each treatment and determining the mean s.d. for the replicates exposed to both antibodies.
The level of TGase-1 detected after treatment of the cells could be influenced by cell number, i.e., the greater the number of cells the greater the level of TGase-1 detected. The level of TGase-1 was normalized to DNA content of the cells in the same well thus eliminating variation due to differences in cell number. […]

Assay [3] has as its system keratinocytes. Nature of the assay: Transglutaminase assay and keratinocyte differentiation, TGase normalized to DNA (Example 1B). The assay is classed as cell-based, Human. As to conditions: for keratinocyte differentiation / transglutaminase level (in words): […]10^-7 M, […]10^-8 M and […]10^-9 M, vs ethanol control; for mean TGase/DNA × 10^-4 ± s.d: 72 hours, n = 3. The method, then:
as §1, §2
Keratinocytes (cultured as described above) were plated in 96 well plates at a density of 3,000 cells per well in 200 μl media. After incubation for four days the media was changed to media containing test compounds (six replicates per test). The cells were cultured for a further 72 hours after which time the media was aspirated and the plates stored at -70° C. Plates were removed from the freezer, and the cells washed with PBS. 100 μl sterile water was added and the cells were freeze fractured by freezing at -70° C. then thawing. The cells were incubated for one hour at room temperature (R/T) with PBS/3% BSA (wash buffer, bovine serum albumin), then rinsed with a fresh aliquot of wash buffer. Cells were incubated with 50 μl of primary antibodies monoclonal anti-human transglutaminase mouse antibody (IgG) obtained from Biomedical Industries diluted 1:2,000 in wash buffer for one hour, 37° C. then rinsed two times with wash buffer. Cells were then incubated with 50 μl of secondary antibody (Fab fragment, peroxidase conjugated anti-mouse IgG obtaining from Amersham) diluted 1:4,000 in wash buffer for one hour at 37° C., then rinsed two times with wash buffer. […] The absorbance of samples was read at 492 nm in the plate reader. […] TGase levels were determined by subtracting background from the readings from each treatment and determining mean±s.d. for the replicates exposed to both Ab.
The level of TGase-1 detected after treatment of the cells could be influenced by cell number, i.e., the greater the number of cells the greater the level of TGase-1 detected. […]

Setting [4] is: Homo sapiens, Keratinocyte, Experiment 2, read-out: Transglutaminase level, % CONTROL.

Read-outs that look alike come from different tables or passages of the source.

Protocol for LRAT: A solution containing 0.1M sodium phosphate pH 7 buffer, 5 mM dithiothreitol, 2 mg/ml bovine serum albumin, 40 micromolar palmitoyl CoA, 40 micromolar dilauroyl phosphatidyl choline, 10 micromolar retinol and a test compound or a solvent blank, is incubated for 1 hour at 37° C. with a microsomal fraction isolated from bovine retinal pigment epithelial cells. After incubation, the reaction was quenched by addition of an equal volume of ethanol, and the retinyl esters formed (retinyl laurate from the LRAT catalyzed reaction and retinyl palmitate from ARAT catalyzed reaction) are extracted with hexane.
A solution containing 0.1M sodium phosphate pH 7 buffer, 5 mM dithiothreitol, 2 mg/ml bovine serum albumin, 40 micromolar palmitoyl CoA, 40 micromolar dilauroyl phosphatidyl choline, 10 micromolar retinol and a test compound or solvent blank, was incubated for 1 hour at 37° C. with a microsomal fraction isolated from bovine retinal pigment epithelial cells. After incubation, the reaction was quenched by addition of an equal volume of ethanol, and the retinyl esters formed (retinyl palmitate from the ARAT catalyzed reaction, and retinyl laurate from the LRAT catalyzed reaction) were extracted with hexane.
The compounds in Table A were tested at a 100 μM concentration.

In general, inhibition refers to the change of the read-out against control, counted positive when it falls. In the case of `CC(=O)CCC1C(C)=CCCC1(C)C` (stereo not drawn) [dihydro alpha ionone], at LRAT (Table C (comparative), 100 μM), at 100 µM the inhibition was 18%.
In the case of `CC(C)[C@@H]1CC[C@@H](C)CC1=O` [mentone], the “% INHIBITION, LRAT” value on LRAT (Table C (comparative), 100 μM) was determined as 0%.
At LRAT (Table A, 100 μM), `C=C1CCCC(C)(C)C1/C=C/C(=O)CC` (stereo not drawn) [gamma methyl ionone] returned an inhibition at 100 µM of 38%.
`C=CCCC(=O)/C=C/C1C(C)=CCCC1(C)C` (stereo not drawn) [allyl alpha ionone]: the inhibition at 10 µM at LRAT was 17%.
In the case of `C/C=C/C(=O)C1C(C)=CC=CC1(C)C` (stereo not drawn) [damascenone], at LRAT (Table A, 100 μM), at 100 µM the inhibition was 79%. Moreover, at LRAT, testing at 10 µM gave an inhibition of 29%.
Regarding `CC1=C(/C=C/C(C)=C/C=C/C(C)=C/C(=O)O)C(C)(C)CCC1` [Retinoic acid], the “keratinocyte proliferation (in words)” value in the assay on keratinocytes [1] ([…]10^-7 M, […]10^-8 and […]10^-9 M, over ethanol control and each retinol treatment) was “significantly increased keratinocyte proliferation”. The “mean Thymidine incorp./μg protein ± s.d” value amounted to 2475 ± 116 DPM/μg protein in the assay on keratinocytes [1] ([…] 10^-7 M), 2686 ± 72 DPM/μg protein with keratinocytes [1] ([…] 10^-8 M) and 2556 ± 80 DPM/μg protein with keratinocytes [1] ([…] 10^-9 M). The activity at […] with keratinocytes [2] (Homo sapiens, Keratinocyte, read-out: Transglutaminase level, % CONTROL, Experiment 1) is 24%; in the assay on keratinocytes [2] (Homo sapiens, Keratinocyte, read-out: Transglutaminase level, % CONTROL, Experiment 2), 8%. Also, in the assay on keratinocytes [3], the “keratinocyte differentiation / transglutaminase level (in words)” value is recorded as “decreased keratinocyte differentiation”.
On LRAT (Table A, 100 μM), `CCCC(O)CCC1C(C)CCCC1(C)C` (stereo not drawn) [timberol] gave an inhibition at 100 µM of 33%.
For `CC1=C(/C=C/C(C)=C/C=C/C(C)=C/CO)C(C)(C)CCC1` [Retinol], the “mean Thymidine incorp./μg protein ± s.d” value in the assay with keratinocytes [1] ([…] 10^-7 M) was 2218 ± 73 DPM/μg protein; in the assay with keratinocytes [1] ([…] 10^-8 M), 2034 ± 46 DPM/μg protein; in the assay with keratinocytes [1] ([…] 10^-9 M), 1977 ± 19 DPM/μg protein. Further, the activity at 1 µM in the assay on keratinocytes [2] (Homo sapiens, Keratinocyte, Experiment 1, .001 mM, read-out: Transglutaminase level, % CONTROL) worked out at 67%. The activity at […] in the assay on keratinocytes [2] (setting [4]) was 63.5%. Also, the “effect on transglutaminase / keratinocyte differentiation (in words)” value in the assay on keratinocytes [2] is listed as “not very effective”. In the assay with keratinocytes [3], the “keratinocyte differentiation / transglutaminase level (in words)” value was “The decrease in transglutaminase level was dose dependent”. For the same compound, the “mean TGase/DNA × 10^-4 ± s.d” value is on record as 1.14 ± 0.22 × 10^-4 in the assay on keratinocytes [3] ([…] 10^-7 M), 1.89 ± 0.30 × 10^-4 in the assay on keratinocytes [3] ([…] 10^-8 M) and 2.70 ± 0.59 × 10^-4 with keratinocytes [3] ([…] 10^-9 M).
On to `C/C=C/C(=O)C1C(C)=CCCC1(C)C` (stereo not drawn) [alpha damascone], for which the activity at 1000 µM is 92% in the assay on keratinocytes [2] (Homo sapiens, Keratinocyte, Experiment 1, read-out: Transglutaminase level, % CONTROL) and 86% in the assay on keratinocytes [2] (setting [4]). In addition, the “effect on transglutaminase / keratinocyte differentiation (in words)” value with keratinocytes [2] is on record as “not very effective”.
